Assay [1] deals with T1, NLRP3 (Homo sapiens, UniProt Q96P20). The assay can be described thus: THP-1 cells pyroptosis assay (LPS + nigericin, resazurin read-out). Also on record: Seed THP-1 cells (25,000 cells/well) containing 1.0 μg/ml LPS; host or cells: THP-1 cells. The following applies: THP-1 cells, 1 μg/ml LPS, 5 μM nigericin; NLRP3 inhibitory activity; read-out: THP IC50. The format is cell-based. The protocol:
THP-1 cells (ATCC #TIB-202) were grown in RPMI containing L-glutamine (Gibco #11835) supplemented with 1 mM sodium pyruvate (Sigma #S8636) and penicillin (100 units/ml)/streptomycin (0.1 mg/ml) (Sigma #P4333) in 10% Fetal Bovine Serum (FBS) (Sigma #F0804). The cells were routinely passaged and grown to confluency (˜10^6 cells/ml). On the day of the experiment, THP-1 cells were harvested and resuspended into RPMI medium (without FBS). The cells were then counted and viability (>90%) checked by Trypan blue (Sigma #T8154). Appropriate dilutions were made to give a concentration of 625,000 cells/ml. To this diluted cell solution was added LPS (Sigma #L4524) to give a 1 μg/ml Final Assay Concentration (FAC). 40 μl of the final preparation was aliquoted into each well of a 96-well plate. The plate thus prepared was used for compound screening.
The following method step-by-step assay was followed for compound screening. • 1. Seed THP-1 cells (25,000 cells/well) containing 1.0 μg/ml LPS in 40 μl of RPMI medium (without FBS) in 96-well, black walled, clear bottom cell culture plates coated with poly-D-lysine (VWR #734-0317) • 2. Add 5 μl compound (8 points half-log dilution, with 10 μM top dose) or vehicle (DMSO 0.1% FAC) to the appropriate wells • 3. Incubate for 3 hrs at 37° C., 5% CO2 • 4. Add 5 μl nigericin (Sigma #N7143) (FAC 5 μM) to all wells • 5. Incubate for 1 hr at 37° C., 5% CO2 • 6. At the end of the incubation period, spin plates at 300×g for 3 mins and remove supernatant • 7. Then add 50 μl of resazurin (Sigma #R7017) (FAC 100 μM resazurin in RPMI medium without FBS) and incubate plates for a further 1-2 hrs at 37° C. and 5% CO2 • 8. Plates were read in an Envision reader at Ex 560 nm and Em 590 nm • 9. IC50 data is fitted to a non-linear regression equation (log inhibitor vs response-variable slope 4-parameters)
On the technique in general: Alamar Blue is a resazurin reagent that responds to reducing activity.

Assay [2] has as its target T1, NLRP3. The assay is described as follows: Human whole blood IL-1β release assay (LPS + nigericin, AlphaLisa). Type of assay: cell-based. Also on record: Plate out 80 μl of whole blood containing 1 μg/ml of LPS; from tissue; host or cells: human whole blood from healthy donors. Conditions: human whole blood, 1 μg/ml LPS, 10 μM nigericin; IL-1β release; read-out: HWB IC50. The protocol: For systemic delivery, the ability to inhibit NLRP3 when the compounds are present within the bloodstream is of great importance. For this reason, the NLRP3 inhibitory activity of a number of compounds in human whole blood was investigated in accordance with the following protocol.
Human whole blood in Li-heparin tubes was obtained from healthy donors from a volunteer donor panel. • 1. Plate out 80 μl of whole blood containing 1 μg/ml of LPS in 96-well, clear bottom cell culture plate (Corning #3585) • 2. Add 10 μl compound (8 points half-log dilution with 10 μM top dose) or vehicle (DMSO 0.1% FAC) to the appropriate wells • 3. Incubate for 3 hrs at 37° C., 5% CO2 • 4. Add 10 μl nigericin (Sigma #N7143) (10 μM FAC) to all wells • 5. Incubate for 1 hr at 37° C., 5% CO2 • 6. At the end of the incubation period, spin plates at 300×g for 5 mins to pellet cells and remove 20 μl of supernatant and add to 96-well v-bottom plates for IL-1β analysis (note: these plates containing the supernatants can be stored at −80° C. to be analysed at a later date) • 7. IL-1β was measured according to the manufacturer protocol (Perkin Elmer-AlphaLisa IL-1 Kit AL220F-5000) • 8. IC50 data is fitted to a non-linear regression equation (log inhibitor vs response-variable slope 4-parameters)
(Alpha assays give light when donor and acceptor beads are brought close together.)

The structures appear in SMILES notation. pIC50: −log10 of the molar value. Counter-ions that a name gives are not always drawn. Bounds are passed on as bounds.

T1 sequence (Q96P20 whole entry): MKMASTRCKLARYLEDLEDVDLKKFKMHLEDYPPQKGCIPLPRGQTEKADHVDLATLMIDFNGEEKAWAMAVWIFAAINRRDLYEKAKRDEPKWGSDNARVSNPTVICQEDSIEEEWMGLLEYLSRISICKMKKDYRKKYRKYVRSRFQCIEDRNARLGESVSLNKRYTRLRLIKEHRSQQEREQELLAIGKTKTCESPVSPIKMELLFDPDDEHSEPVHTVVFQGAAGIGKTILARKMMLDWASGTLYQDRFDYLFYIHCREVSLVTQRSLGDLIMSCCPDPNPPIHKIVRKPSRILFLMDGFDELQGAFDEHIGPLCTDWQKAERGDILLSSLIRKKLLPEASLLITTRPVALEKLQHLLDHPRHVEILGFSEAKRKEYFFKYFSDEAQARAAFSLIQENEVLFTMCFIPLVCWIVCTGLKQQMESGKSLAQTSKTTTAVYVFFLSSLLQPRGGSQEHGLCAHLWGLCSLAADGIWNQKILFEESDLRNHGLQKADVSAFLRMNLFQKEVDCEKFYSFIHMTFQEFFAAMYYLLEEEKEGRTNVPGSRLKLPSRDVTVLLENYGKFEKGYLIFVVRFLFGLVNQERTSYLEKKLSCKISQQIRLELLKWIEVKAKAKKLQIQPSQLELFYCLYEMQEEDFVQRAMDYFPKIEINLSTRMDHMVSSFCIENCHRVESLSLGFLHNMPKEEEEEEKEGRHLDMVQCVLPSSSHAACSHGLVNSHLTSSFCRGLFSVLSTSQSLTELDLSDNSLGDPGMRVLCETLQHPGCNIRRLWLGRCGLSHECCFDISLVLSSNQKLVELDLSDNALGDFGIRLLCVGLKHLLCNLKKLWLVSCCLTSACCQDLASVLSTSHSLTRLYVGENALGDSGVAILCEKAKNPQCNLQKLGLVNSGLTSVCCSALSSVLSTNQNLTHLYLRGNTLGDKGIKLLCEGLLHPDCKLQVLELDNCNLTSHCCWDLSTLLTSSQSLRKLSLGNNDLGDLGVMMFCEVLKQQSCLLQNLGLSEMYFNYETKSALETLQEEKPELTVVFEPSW

Consider `CN1CC(CN(C)S(=O)(=O)NC(=O)Nc2c3c(cc4c2CCC4)CCC3)C1` [Example 84, 3-(N-Methyl-N-((1-methylazetidin-3-yl)methyl)sulfamoyl)-1-(1,2,3,5,6,7-hexahydro-s-indacen-4-yl)urea, potassium salt], for which the negative-log IC50 (pIC50) (in general, the IC50 on a negative log10 scale, so that one unit is a factor of ten) at NLRP3 [1] was greater than 6.30; at NLRP3 [2] it was greater than 6.00.

For the compound `CN1CC2CCC(C1)N2S(=O)(=O)NC(=O)Nc1c2c(cc3c1CCC3)CCC2` [Example 37, N-((1,2,3,5,6,7-Hexahydro-s-indacen-4-yl)carbamoyl)-3-methyl-3,8-diazabicyclo[3.2.1]octane-8-sulfonamide, potassium salt], the pIC50 was greater than 6.30 at NLRP3 [1] and greater than 6.00 at NLRP3 [2].

For `CC(C)(C)NCCNS(=O)(=O)NC(=O)Nc1c2c(cc3c1CCC3)CCC2` [Example 71, 3-(N-(2-(tert-Butylamino)ethyl)sulfamoyl)-1-(1,2,3,5,6,7-hexahydro-s-indacen-4-yl)urea, potassium salt], the pIC50 is greater than 6.30 on NLRP3 [1] and greater than 6.00 on NLRP3 [2].

On to `CN(C)CCN(CCCc1ccccc1)S(=O)(=O)NC(=O)Nc1c2c(cc3c1CCC3)CCC2` [Example 58, 3-(N-(2-(Dimethylamino)ethyl)-N-(3-phenylpropyl)sulfamoyl)-1-(1,2,3,5,6,7-hexahydro-s-indacen-4-yl)urea, potassium salt], for which the values for the pIC50 at NLRP3 [1] and at NLRP3 [2] were greater than 6.30 and greater than 5.30, respectively.

As for `CN1CCC[C@H]1CN(C)S(=O)(=O)NC(=O)Nc1c2c(cc3c1CCC3)CCC2` [Example 115, 3-((S)—N-Methyl-N-((-1-methylpyrrolidin-2-yl)methyl)sulfamoyl)-1-(1,2,3,5,6,7-hexahydro-s-indacen-4-yl)urea, sodium salt], the figures for the pIC50 at NLRP3 [1] and at NLRP3 [2] were greater than 6.30 and greater than 6.00, respectively.

Take `CN1CCCC(NS(=O)(=O)NC(=O)Nc2c3c(cc4c2CCC4)CCC3)C1` (centres unmarked) [Example 52, 3-(N-(1-Methylpiperidin-3-yl)sulfamoyl)-1-(1,2,3,5,6,7-hexahydro-s-indacen-4-yl)urea, potassium salt]: the pIC50 at NLRP3 [1] and on NLRP3 [2] was greater than 6.30 in each case.

In the case of `CN1CC2CN(S(=O)(=O)NC(=O)Nc3c4c(cc5c3CCC5)CCC4)C2C1` (centres unmarked) [Example 94, N-((1,2,3,5,6,7-Hexahydro-s-indacen-4-yl)carbamoyl)-3-methyl-3,6-diazabicyclo[3.2.0]heptane-6-sulfonamide, potassium salt], the pIC50 at NLRP3 [1] is greater than 6.30; at NLRP3 [2], greater than 6.00.

As to `CN1CC[C@H](NS(=O)(=O)NC(=O)Nc2c3c(cc4c2CCC4)CCC3)C1` [Example 88, 3-((S)—N-(1-Methylpyrrolidin-3-yl)sulfamoyl)-1-(1,2,3,5,6,7-hexahydro-s-indacen-4-yl)urea, potassium salt], the pIC50 on NLRP3 [1] is greater than 6.00; on NLRP3 [2], greater than 6.30.

With `CN(C)C1CCCN(S(=O)(=O)NC(=O)Nc2c3c(cc4c2CCC4)CCC3)C1` (centres unmarked) [Example 15, potassium salt], the pIC50 at NLRP3 [1] and at NLRP3 [2] was greater than 6.30 in each case.

Turning to `CN(C)CCN(Cc1ccccc1)S(=O)(=O)NC(=O)Nc1c2c(cc3c1CCC3)CCC2` [Example 10, 3-(N-Benzyl-N-(2-(dimethylamino)ethyl)sulfamoyl)-1-(1,2,3,5,6,7-hexahydro-s-indacen-4-yl)urea, potassium salt], the pIC50 on NLRP3 [1] and at NLRP3 [2] was greater than 5.30 each time.

For the compound `CN1CC[C@H](N(C)S(=O)(=O)NC(=O)Nc2c3c(cc4c2CCC4)CCC3)C1` [Example 76, 3-((S)—N-Methyl-N-(1-methylpyrrolidin-3-yl)sulfamoyl)-1-(1,2,3,5,6,7-hexahydro-s-indacen-4-yl)urea, potassium salt], the pIC50 at NLRP3 [1] and on NLRP3 [2] was greater than 6.30 throughout.

Turning to `CN(C)[C@H]1C[C@H]2CC[C@@H](C1)N2S(=O)(=O)NC(=O)Nc1c2c(cc3c1CCC3)CCC2` [Example 79, (1R,3r,5S)-3-(Dimethylamino)-N-((1,2,3,5,6,7-hexahydro-s-indacen-4-yl)carbamoyl)-8-azabicyclo[3.2.1]octane-8-sulfonamide], the pIC50 at NLRP3 [2] was greater than 6.30.

Take `CN1C[C@H]2CN(S(=O)(=O)NC(=O)Nc3c4c(cc5c3CCC5)CCC4)C[C@H]21` [Example 92, (1S,5S)—N-((1,2,3,5,6,7-Hexahydro-s-indacen-4-yl)carbamoyl)-6-methyl-3,6-diazabicyclo[3.2.0]heptane-3-sulfonamide, potassium salt]: the pIC50 on NLRP3 [1] and at NLRP3 [2] was greater than 6.30 each time.

Take `CN1C[C@H]2C[C@@H]1CN2S(=O)(=O)NC(=O)Nc1c2c(cc3c1CCC3)CCC2` [Example 43, (1R,4R)—N-((1,2,3,5,6,7-Hexahydro-s-indacen-4-yl)carbamoyl)-5-methyl-2,5-diazabicyclo[2.2.1]heptane-2-sulfonamide, potassium salt]: the pIC50 at NLRP3 [1] and on NLRP3 [2] was greater than 6.30 each time.

As to `CCN1CCCC(NS(=O)(=O)NC(=O)Nc2c3c(cc4c2CCC4)CCC3)C1` (centres unmarked) [Example 19, 3-(N-(1-Ethylpiperidin-3-yl)sulfamoyl)-1-(1,2,3,5,6,7-hexahydro-s-indacen-4-yl)urea, potassium salt], the pIC50 at NLRP3 [1] was greater than 6.00.

Take `CN1C2CC1CN(S(=O)(=O)NC(=O)Nc1c3c(cc4c1CCC4)CCC3)C2` [Example 100, N-((1,2,3,5,6,7-Hexahydro-s-indacen-4-yl)carbamoyl)-6-methyl-3,6-diazabicyclo[3.1.1]heptane-3-sulfonamide]: the pIC50 at NLRP3 [1] is greater than 6.30.

Take `CCN(CC)CCN(C)S(=O)(=O)NC(=O)Nc1c2c(cc3c1CCC3)CCC2` [Example 53, 3-(N-(2-(Diethylamino)ethyl)-N-methyl)sulfamoyl)-1-(1,2,3,5,6,7-hexahydro-s-indacen-4-yl)urea, potassium salt]: the pIC50 on NLRP3 [1] was greater than 5.30.

For the compound `CC(C)N1[C@@H]2CC[C@H]1C[C@@H](NS(=O)(=O)NC(=O)Nc1c3c(cc4c1CCC4)CCC3)C2` [Example 33, (1R,3r,5S)-8-Isopropyl-8-azabicyclo[3.2.1]octan-3-(N-((1,2,3,5,6,7-hexahydro-s-indacen-4-yl)carbamoyl)-sulfonamide)], the pIC50 at NLRP3 [1] is greater than 5.30.

Take `O=C(Nc1c2c(cc3c1CCC3)CCC2)NS(=O)(=O)N1CCN2CCC1C2` (centres unmarked) [Example 60, potassium salt]: the pIC50 on NLRP3 [1] was greater than 6.00.

Take `CN1CCCCC1CN(C)S(=O)(=O)NC(=O)Nc1c2c(cc3c1CCC3)CCC2` (centres unmarked) [Example 22, 3-(N-methyl-N-((1-methylpiperidin-2-yl)methyl)sulfamoyl)-1-(1,2,3,5,6,7-hexahydro-s-indacen-4-yl)urea, potassium salt]: the pIC50 on NLRP3 [1] was greater than 6.30.

On to `CCN(CC)CCN(CC)S(=O)(=O)NC(=O)Nc1c2c(cc3c1CCC3)CCC2` [Example 18, 3-(N-(2-(Diethylamino)ethyl)-N-ethylsulfamoyl)-1-(1,2,3,5,6,7-hexahydro-s-indacen-4-yl)urea, potassium salt], for which, at NLRP3 [1], the pIC50 was greater than 5.30.

With `CC(C)N1[C@@H]2CC[C@H]1C[C@H](NS(=O)(=O)NC(=O)Nc1c3c(cc4c1CCC4)CCC3)C2` [Example 63, (1R,3s,5S)-8-isopropyl-8-azabicyclo[3.2.1]octan-3-(N-((1,2,3,5,6,7-hexahydro-s-indacen-4-yl)carbamoyl)-sulfonamide)], the pIC50 on NLRP3 [1] is greater than 6.00.
